Source: patent US20100184786A1, “Polar Quinazolines” (Wyeth LLC, priority 2008, published 2010)

Legend:
Brain penetration data = assay type: in vivo; details: brain/blood, read-out: Brain/Blood ratio
human LXRβ = biological target: T1, human LXRβ (Homo sapiens, UniProt P55055); experiment: Ligand-binding test procedure for human LXRβ (3H T0901317 tracer, flash plates); details: competition with 3H T0901317; read-out: hLXRb binding IC50
T1 construct: biotin (biotinylated); made in house; host or cells: E. coli
T1 sequence (P55055 1-460): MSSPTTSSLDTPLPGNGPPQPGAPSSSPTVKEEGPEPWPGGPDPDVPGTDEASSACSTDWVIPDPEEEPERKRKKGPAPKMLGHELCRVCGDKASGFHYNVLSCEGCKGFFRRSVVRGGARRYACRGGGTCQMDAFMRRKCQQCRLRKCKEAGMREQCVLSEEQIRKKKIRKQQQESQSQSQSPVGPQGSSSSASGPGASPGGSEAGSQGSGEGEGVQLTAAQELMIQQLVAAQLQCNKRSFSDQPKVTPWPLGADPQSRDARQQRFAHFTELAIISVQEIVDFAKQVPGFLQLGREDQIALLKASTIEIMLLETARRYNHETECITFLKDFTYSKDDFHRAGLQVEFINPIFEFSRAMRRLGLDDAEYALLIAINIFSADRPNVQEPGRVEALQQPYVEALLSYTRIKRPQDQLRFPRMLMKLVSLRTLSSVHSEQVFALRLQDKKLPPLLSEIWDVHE
Experimental: I. Ligand-Binding Test Procedure for Human LXRβ.
• Buffer: 100 mM KCl, 100 mM TRIS (pH 7.4 at +4° C.), 8.6% glycerol, 0.1 mM PMSF*, 2 mM MTG*, 0.2% CHAPS (* not used in wash buffer) • Tracer: ^3H T0901317 • Receptor source: E. coli extracted from cells expressing biotinylated hLXRβ. Extract was made in a similar buffer as above, but with 50 mM TRIS.
• Washed streptavidin and coated flash plates with wash buffer. • Diluted receptor extract to give Bmax˜4000 cpm and add to the wells. • Wrapped the plates in aluminum foil and stored them at +4° C. overnight.
(§1) • Made a dilution series in DMSO of the test ligands. • Made a 5 nM solution of the radioactive tracer in buffer. • Mixed 2500 diluted tracer with 50 of the test ligand from each concentration of the dilution series. • Washed the receptor-coated flash plates. • Added 2000 per well of the ligand/radiolabel mixture to the receptor-coated flash plates. • Wrapped the plates in aluminum foil and incubate at +4° C. over night.
• Aspirated wells, and washed the flashed plates. Sealed the plate. • Measured the remaining radioactivity in the plate.

human LXRα = biological target: T2, human LXRα (Homo sapiens, UniProt Q13133); experiment: Ligand-binding test procedure for human LXRα (3H T0901317 tracer, flash plates); details: competition with 3H T0901317; read-out: hLXRa binding IC50
T2 construct: biotin (biotinylated); made in house; host or cells: E. coli
T2 sequence (Q13133 1-447): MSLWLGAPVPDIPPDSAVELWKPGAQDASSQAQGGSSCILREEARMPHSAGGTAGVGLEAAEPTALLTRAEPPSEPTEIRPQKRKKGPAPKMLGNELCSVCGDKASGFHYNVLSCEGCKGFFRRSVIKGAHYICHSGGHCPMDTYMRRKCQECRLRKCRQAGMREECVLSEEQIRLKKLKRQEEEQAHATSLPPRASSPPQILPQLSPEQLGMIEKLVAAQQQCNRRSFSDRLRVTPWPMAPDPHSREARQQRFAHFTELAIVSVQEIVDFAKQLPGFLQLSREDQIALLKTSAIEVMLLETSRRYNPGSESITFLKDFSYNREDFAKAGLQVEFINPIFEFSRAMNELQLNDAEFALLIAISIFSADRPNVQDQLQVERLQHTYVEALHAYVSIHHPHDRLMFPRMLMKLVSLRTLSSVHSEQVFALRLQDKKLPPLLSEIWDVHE
Experimental: II. Ligand-Binding Test Procedure for Human LXRa.
• Buffer: 100 mM KCl, 100 mM TRIS (pH 7.4 at +4° C.), 8.6% glycerol, 0.1 mM PMSF*, 2 mM MTG*, 0.2% CHAPS (* not used in wash buffer) • Tracer: ^3H T0901317 • Receptor source: E. coli extract from cells expressing biotinylated hLXRα. Extract was made in a similar buffer as above, but with 50 mM TRIS.
• Washed streptavidin and coated flash plates with wash buffer. • Diluted receptor extract to give Bmax˜4000 cpm and add to the wells. • Wrapped the plates in aluminum foil and stored them at +4° C. over night.
as §1
• Aspirated wells, and wash the flashed plates. Sealed the plate. • Measured the remaining radioactivity in the plate.

ABCA1 gene = experiment: Gene regulation by LXR (murine): ABCA1 gene regulation, mRNA by real-time PCR; assay type: cell-based; details: Mus musculus; for Emax: read-out: Agonism ABCA1

Row | Compound | Kp (Brain penetration data) | IC50 (human LXRβ) [nM] | IC50 (human LXRα) [nM] | EC50 (ABCA1 gene) [nM] | Emax (ABCA1 gene) [%]
1 | Cc1nc(-c2cccc(-c3cccc(S(C)(=O)=O)c3)c2)c2cccc(C(F)(F)F)c2n1 | 2.27 | – | – | – | –
2 | CS(=O)(=O)c1cccc(Oc2ccc(F)c(-c3ncnc4c(C(F)(F)F)cccc34)c2)c1 | 1.45 | – | – | – | –
3 | CCS(=O)(=O)c1cccc(Oc2ccc(Cl)c(-c3nc(C)nc4c(C(F)(F)F)cccc34)c2)c1 | 1.57 | – | – | – | –
4 | CS(=O)(=O)c1cccc(Oc2ccc(F)c(-c3ncnc4c(Cl)cccc34)c2)c1 | 1.2 | – | – | – | –
5 | CCS(=O)(=O)c1cccc(Oc2ccc(F)c(-c3ncnc4c(Cl)cccc34)c2)c1 | 1.2 | – | – | – | –
6 | NS(=O)(=O)c1cccc(Oc2ccc(Cl)c(-c3ncnc4c(Cl)cccc34)c2)c1 [Example 17, 3-[4-chloro-3-(8-chloroquinazolin-4-yl)phenoxy]benzenesulfonamide] | – | 151 | 1710 | 1480 | 74
7 | NS(=O)(=O)c1cccc(Oc2ccc(F)c(-c3ncnc4c(C(F)(F)F)cccc34)c2)c1 [Example 21, 3-{4-fluoro-3-[8-(trifluoromethyl)quinazolin-4-yl]phenoxy}benzenesulfonamide] | – | 121 | 1010 | 650 | 68
8 | N#CCCCS(=O)(=O)c1cccc(Oc2ccc(F)c(-c3ncnc4c(C(F)(F)F)cccc34)c2)c1 [Example 25, 4-[(3-{4-fluoro-3-[8-(trifluoromethyl)quinazolin-4-yl]phenoxy}phenyl)sulfonyl]butanenitrile] | 0.55 | 112 | 1520 | 2470 | 68
9 | NCCCS(=O)(=O)c1cccc(Oc2ccc(F)c(-c3ncnc4c(C(F)(F)F)cccc34)c2)c1 [Example 28, 3-[(3-{4-fluoro-3-[8-(trifluoromethyl)quinazolin-4-yl]phenoxy}phenyl)sulfonyl]propan-1-amine] | – | 116 | 2990 | – | 3
10 | CS(=O)(=O)CCCS(=O)(=O)c1cccc(Oc2ccc(F)c(-c3ncnc4c(C(F)(F)F)cccc34)c2)c1 [Example 32, 4-[2-fluoro-5-(3-{[3-(methylsulfonyl)propyl]sulfonyl}phenoxy)phenyl]-8-(trifluoromethyl)-quinazoline] | – | 59 | 660 | 1010 | 78
11 | CS(=O)(=O)CCCCS(=O)(=O)c1cccc(Oc2ccc(F)c(-c3ncnc4c(C(F)(F)F)cccc34)c2)c1 [Example 37, 4-[2-fluoro-5-(3-{[4-(methylsulfonyl)butyl]sulfonyl}phenoxy)phenyl]-8-(trifluoromethyl)-quinazoline] | – | 66 | 536 | 415 | 77
12 | N#CCCCCS(=O)(=O)c1cccc(Oc2ccc(F)c(-c3ncnc4c(Cl)cccc34)c2)c1 [Example 52, 5-({3-[3-(8-chloroquinazolin-4-yl)-4-fluorophenoxy]phenyl}sulfonyl)pentanenitrile] | – | 107 | 2030 | 1800 | 74
13 | Cc1nc(-c2cc(Oc3cccc(S(=O)(=O)CCCCC#N)c3)ccc2Cl)c2cccc(C(F)(F)F)c2n1 [Example 61, 5-[(3-{4-chloro-3-[2-methyl-8-(trifluoromethyl)quinazolin-4-yl]phenoxy}phenyl)sulfonyl]-pentanenitrile] | – | 97 | 2800 | – | 27

Further lines, with some results ahead:

Row | Kp (Brain penetration data) | IC50 (human LXRβ) [nM] | IC50 (human LXRα) [nM] | EC50 (ABCA1 gene) [nM] | Compound | Emax (ABCA1 gene) [%]
14 | 0.06 | 41 | 407 | 1900 | NC(=O)CCCS(=O)(=O)c1cccc(Oc2ccc(Cl)c(-c3ncnc4c(C(F)(F)F)cccc34)c2)c1 [Example 9, 4-[(3-{4-chloro-3-[8-(trifluoromethyl)quinazolin-4-yl]phenoxy}phenyl)sulfonyl]-butanamide] | 91
15 | 0.16 | 40 | 425 | 1760 | N#CCS(=O)(=O)c1cccc(Oc2ccc(Cl)c(-c3ncnc4c(C(F)(F)F)cccc34)c2)c1 [Example 11, [(3-{4-chloro-3-[8-(trifluoromethyl)quinazolin-4-yl]phenoxy}phenyl)sulfonyl]-acetonitrile] | 95
16 | – | 56 | 705 | 1380 | NC(=O)CS(=O)(=O)c1cccc(Oc2ccc(Cl)c(-c3ncnc4c(C(F)(F)F)cccc34)c2)c1 [Example 14, 2-[(3-{4-chloro-3-[8-(trifluoromethyl)quinazoliyl]phenoxy}phenyl)sulfonyl]-acetamide] | 95
17 | – | 19 | 1010 | 2920 | O=C(O)CS(=O)(=O)c1cccc(Oc2ccc(Cl)c(-c3ncnc4c(C(F)(F)F)cccc34)c2)c1 [Example 15, [(3-{4-chloro-3-[8-(trifluoromethyl)quinazolin-4-yl]phenoxy}phenyl)sulfonyl]acetic acid] | 51
18 | – | 11 | 146 | 255 | CNS(=O)(=O)c1cccc(Oc2ccc(Cl)c(-c3ncnc4c(Cl)cccc34)c2)c1 [Example 16, 3-[4-chloro-3-(8-chloroquinazolin-4-yl)phenoxy]-N-methylbenzenesulfonamide] | 98
19 | – | 4 | 81 | 85 | CNS(=O)(=O)c1cccc(Oc2ccc(Cl)c(-c3ncnc4c(C(F)(F)F)cccc34)c2)c1 [Example 18] | 94
20 | – | 49 | 581 | 220 | NS(=O)(=O)c1cccc(Oc2ccc(Cl)c(-c3ncnc4c(C(F)(F)F)cccc34)c2)c1 [Example 19, 3-{4-chloro-3-[8-(trifluoromethyl)quinazolin-4-yl]phenoxy}benzenesulfonamide] | 95
21 | – | 10 | 149 | 290 | CNS(=O)(=O)c1cccc(Oc2ccc(F)c(-c3ncnc4c(C(F)(F)F)cccc34)c2)c1 [Example 22] | 81
22 | – | 17 | 33 | 450 | CNS(=O)(=O)c1cccc(Oc2ccc(F)c(-c3ncnc4c(Cl)cccc34)c2)c1 [Example 23, 3-[3-(8-chloroquinazolin-4-yl)-4-fluorophenoxy]-N-methylbenzenesulfonamide] | 85
23 | – | 52 | 628 | 1760 | N#CCCCCS(=O)(=O)c1cccc(Oc2ccc(F)c(-c3ncnc4c(C(F)(F)F)cccc34)c2)c1 [Example 31, 5-[(3-{4-fluoro-3-[8-(trifluoromethyl)quinazolin-4-yl]phenoxy}phenyl)sulfonyl]pentanenitrile] | 99
